Laboratory results: paper PMC12624573, “The antigen presentation landscape of cytokine-stressed human pancreatic islets” (Cell reports, 2025)

System: CD8+ T cells from PBMC
Experiment: IFN-γ ELISpot, PBMC-derived in vitro expanded CD8+ T cell lines
Type: cell-based, human
Design: key to T cell recognition by PBMC from a T1D donor: E: T cell recognition by PBMC from a T1D donor was tested and verified; see Figure 5
Conditions: A2 Set Peptides; PBMC T cell lines; responding donors/donors tested

Sequence | T1D Donor T cell response | non-T1D Donor T cell response
AILETAPKEV [compound 129, 17] | 0/4 | 0/2
ALAEEVEQV [compound 87, 12] | 0/4 | 0/2
ALANHLIKV [compound 96, 13] | 2/4 | 0/2
ALAPAPPQV [compound 127, 16] | 0/4 | 0/2
ALDGPPIKV [compound 80, 11] | 1/5 | 0/2
ALKPLAAAL [compound 138, 18] | 0/4 | 0/2
ALLDQALSNA [compound 111, 15] | 0/4 | 0/2
ALLDVTPKAV [compound 140, 18] | 0/4 | 0/2
ALLETVNRL [compound 99, 13] | 0/5 | 0/2
ALMEAIHSA [compound 93, 13] | 1/4 | 0/2
ALYDNVEKL [compound 89, 12] | 0/4 | 0/2
AMFDQSQIQEF [compound 116, 15] | 1/4 | 0/2
AQIALQPAL [compound 131, 17] | 0/4 | 0/2
AQLENPAAV [compound 97, 13] | 0/4 | 0/2
AQTEVIATL [compound 94] | 0/5 | 0/2
ELNPKILAL [compound 100, 13] | 0/4 | 0/2
FIASKGVKLV [compound 86, 12] | 0/5 | 0/2
FLIRESETL [compound 109, 14] | 1/4 | 0/2
FLKEPALNEA [compound 124, 16] | 0/4 | 0/2
GLDDIKDLKV [peptide 112, 15] | 3/4 | 0/2
GLDRLNVTV [peptide 101, 14] | 4/4 | 0/2
HLANIVERV [compound 141, 18] | 0/4 | 0/2
HLKALTSEL [compound 114, 15] | 0/5 | 0/2
HLMDQPLSV [compound 108, 14] | 0/4 | 0/2
HLTPSPVPV [compound 121] | 0/5 | 0/2

Sequence | T1D Donor T cell response | non-T1D Donor T cell response
HQNQLLSSL [compound 143, 18] | 0/4 | 0/2
KLIQKNLAT [compound 130, 17] | 0/4 | 0/2
KLLDPEDVAVQL [compound 142, 18] | 0/4 | 0/2
KLQELNYNL [compound 132, 17] | 0/4 | 0/2
KLTENLVAL [compound 92, 12] | 0/5 | 0/2
KQFPEVIKY [compound 90, 12] | 0/4 | 0/2
KQMEQISQF [compound 137, 18] | 0/4 | 0/2
KVDEAVAVL [compound 83, 11] | 0/4 | 0/2
KVIEINPYL [compound 123, 16] | 0/5 | 0/2
LIQDRVAEV [compound 106, 14] | 1/5 | 0/2
LLDEEISRV [compound 84, 11] | 0/4 | 0/2
LLDVPTAAV [compound 81, 11] | 1/5 | 0/2
LLSDTVQHL [compound 136, 17] | 0/4 | 0/2
LQNPDLVSL [compound 119, 16] | 0/4 | 0/2
QLMAEKLQL [compound 115, 15] | 0/4 | 0/2
QLSDVAEKL [compound 128, 17] | 0/4 | 0/2
QQQQKIIAL [compound 91, 12] | 0/5 | 0/2
RLDDLKMTV [compound 82, 11] | 1/5 | 0/2
RLQDELVTL [compound 110, 15] | 0/4 | 0/2
RLSDAQIYV [compound 103, 14] | 0/4 | 0/2
RLSDVQIYV [compound 102, 14] | 1/4 | 0/2
RLYDPTEGMVSV [compound 85, 12] | 0/4 | 0/2
RVAEVQQVL [compound 107, 14] | 0/5 | 0/2
RVIGTLEEV [compound 125, 16] | 0/4 | 0/2

Same assay, conditions: HPAP-A2 Pool Peptides; PBMC T cell lines; responding donors/donors tested

Sequence | T1D Donor T cell response | non-T1D Donor T cell response
ALDGPPIKV [compound 164] | 0/4 | 0/4
ALKPLAAAL [compound 169] | 0/4 | 0/4
ALLETVNRL [compound 162] | 0/4 | 0/4
DVIEKIRYV [compound 159] | 0/4 | 0/4
FLIEEIERL [compound 161] | 0/4 | 0/4
FTNHFLVEL [compound 165] | 0/4 | 0/4
IIVDIFHGL [compound 170] | 0/4 | 0/4
KLLESFKI [compound 160] | 0/4 | 0/4
KQFPEVIKY [compound 157] | 0/5 | 0/4
KVIEINPYL [compound 166] | 0/4 | 0/4
NLKEAIETI [compound 163] | 0/4 | 0/4
RVVGTLHLL [compound 168] | 0/4 | 0/4

Same assay, conditions: MHC-I peptides; superscript E on the peptide; F = verified with C1R-A2 cells

Sequence | T cell recognition by PBMC from a T1D donor
ALANHLIKV | ALANHLIKV ^ E
ALMEAIHSA | ALMEAIHSA ^ E
AMFDQSQIQEF | AMFDQSQIQEF ^E, F
GLDDIKDLKV | GLDDIKDLKV ^ E
GLDRLNVTV | GLDRLNVTV ^ E
RLDDLKMTV | RLDDLKMTV ^ E
RLSDVQIYV | RLSDVQIYV ^ E
RSAAVLALL | RSAAVLALL ^E,F

Same assay, conditions: PTM and unmodified native Pool Peptides (pool PTM 1), 9-mer peptides; PBMC T cell lines; responding donors/donors tested

Sequence | T1D Donor T cell response | non-T1D Donor T cell response
QADFAIEAL [compound 150, non-modified native peptide, pool PTM A2] | 0/4 | 0/3

Same assay, conditions: SEC (Secretory) A2 Peptides Set; PBMC T cell lines; responding donors/donors tested

Sequence | T1D Donor T cell response
GSHLVEALY [compound 172, secretory hormone eluted peptide, pool SEC A2] | 0/4
KEFIAWLV [compound 174, secretory hormone eluted peptide, pool SEC A2] | 0/4

Same assay, conditions: T1D donors, PBMC-derived lines (Figure 5J)

Sequence | Number of donors whose CD8 T cells recognized the peptide (IFN-γ ELISpot)
GLDDIKDLKV [peptide 112, 15] | three of the donors
GLDRLNVTV [peptide 101, 14] | all four donors
